The text below walks through data of US20260022094A1, “Compounds for the Treatment of Neurodegenerative Diseases” (Celgene Corporation, priority 2022, published 2026).

T1 sequence (Q9H228 whole entry): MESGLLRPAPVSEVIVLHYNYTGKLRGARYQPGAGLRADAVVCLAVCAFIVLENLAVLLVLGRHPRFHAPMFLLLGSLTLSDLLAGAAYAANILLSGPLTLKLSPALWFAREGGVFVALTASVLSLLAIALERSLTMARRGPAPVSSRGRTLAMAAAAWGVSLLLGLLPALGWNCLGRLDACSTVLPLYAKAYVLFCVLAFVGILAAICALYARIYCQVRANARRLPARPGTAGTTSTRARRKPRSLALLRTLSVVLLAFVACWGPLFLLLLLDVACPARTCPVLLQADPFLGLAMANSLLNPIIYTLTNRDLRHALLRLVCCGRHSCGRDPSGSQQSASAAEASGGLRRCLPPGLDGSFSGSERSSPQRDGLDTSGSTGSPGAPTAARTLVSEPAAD

The assay concerns the target T1, S1P5 receptors (Homo sapiens, UniProt Q9H228).
T1 construct: expressed in transfected cells; host or cells: CHO cells (membranes)
Nature of the assay: [35S]-GTPγS binding assay on CHO-S1P5 membranes (S1P5 agonism). To be noted: membranes of CHO cells expressing recombinant S1P5; measure of S1P5 agonism. Format: biochemical. As to the method:
CHO cells expressing recombinant S1P5 receptors were cultured in 500 cm^2 culture trays and, once confluent, rinsed and detached with cell-lifting buffer (10 mM HEPES, 154 mM NaCl, 6.85 mM EDTA, pH 7.4). Cells were then pelleted by centrifugation, resuspended, and homogenized in membrane preparation buffer (10 mM HEPES and 10 mM EDTA, pH 7.4) using a Polytron PT 1200E homogenizer (Kinematica, Luzern, Switzerland). Cellular proteins were pelleted by centrifugation at 48,000×g at 4° C. for 30 minutes. The resulting supernatant was discarded, and the pellet was re-suspended again in membrane preparation buffer, homogenized for a second time, and then centrifuged again as described above. The final cellular protein pellet was suspended in ice cold resuspension buffer (10 mM HEPES and 0.1 mM EDTA, pH 7.4), divided into aliquots, and stored at −80° C. until use.
Functional binding assays for [^35S]-GTPγS were performed in 96-well non-binding surface plates with a final volume of 200 μL. The test compounds were serially diluted in DMSO and added to assay plates using a Tecan D300E digital printer with a total volume of 0.4 μL. The control sphingosine-1-phosphate (SIP) was prepared separately by preparing a 400 µM stock solution from a 100 nmol pellet of S1P in 10 mM Na2CO3 with 2% β-cyclodextrin. The serial dilution of S1P was done using complete assay buffer (20 mM HEPES, 10 mM MgCl2, 100 mM NaCl, 1 mM EDTA, 0.1% fatty acid free bovine serum albumin (BSA), and 30 μg/mL saponin, pH 7.4) and transferred to wells already containing 0.4 μL DMSO. All the wells were then loaded to a total volume of 40 μL of complete assay buffer, except the non-specific binding (NSB) wells. For NSB wells, 40 μL/well of 50 μM GTPγS (Sigma Aldrich, cat #G8634, St. Louis, MO) was added to wells containing 0.4 μL of DMSO. The assay was started by the addition of 120 μL/well of CHO-SIP receptor membrane solution containing 40 μg/mL of membrane protein, 16.67 μM guanosine diphosphate (GDP; Sigma Aldrich, cat #G7127, St. Louis, MO), and 2.5 mg/mL of WGA PVT SPA beads in complete buffer. Assay plates were then sealed and incubated at room temperature with gentle agitation for 30 minutes. Next, 40 μL/well of 1 nM of [^35S]-GTPγS (PerkinElmer, cat #NEG030X^250UC, Waltham, MA) in basic assay buffer (20 mM HEPES, 10 mM MgCl2, 100 mM NaCl, and 1 mM EDTA, pH7.4) was added to the assay plates to yield a final concentration of […] and the plates were further incubated for 40 minutes at room temperature with gentle agitation. The assay was terminated by centrifugation of the plates at 1000 rpm for 3 minutes using an Eppendorf 5810R centrifuge (Eppendorf, Hamburg, Germany) and G protein bound radioactivity was quantitated using a MicroBeta2 microplate scintillation counter (PerkinElmer, Waltham, MA). As G protein bound radioactivity directly correlates to receptor activation and coupling to the G protein, this assay is a measure of S1P5 agonism.
A general note: GTPγS resists hydrolysis and so accumulates on activated G proteins.
By EC50 is commonly meant the concentration giving half of the maximal effect. As to `Cc1cc(C#Cc2cccc(F)c2)cc2c1C(N1CC(C)(O)C1)CC2` (single isomer, unassigned) [Compound 13b, 1-[5-[2-(3-fluorophenyl)ethynyl]-7-methyl-indan-1-yl]-3-methyl-azetidin-3-ol], the concentration for a half-maximal effect (EC50) fell in the range of 10 to 100 nM.
As for `CC1(O)CN(Cc2ccc(N3CC(c4c(Cl)cccc4Cl)C3)cc2)C1` [Compound 33, 1-(4-(3-(2,6-dichlorophenyl)azetidin-1-yl)benzyl)-3-methylazetidin-3-ol], the figure is 100 to 1000 nM; as for `Cc1cc2c(cc1CCc1c(Cl)cccc1Cl)CCC2N1CC(C)(O)C1` (single isomer, unassigned) [Compound 23b, 1-[5-[2-(2,6-dichlorophenyl)ethyl]-6-methyl-indan-1-yl]-3-methyl-azetidin-3-ol], 10 to 100 nM.
Take `Cc1cc2c(cc1OCc1c(Cl)cccc1Cl)CCC2N1CC(C)(O)C1` (single isomer, unassigned) [Compound 24b, 1-[5-[(2,6-dichlorophenyl)methoxy]-6-methyl-indan-1-yl]-3-methyl-azetidin-3-ol]: the EC50 lay in the range of 1 to 10 nM.
As for `Cc1c(-c2ccc(C3CC3)c(Cl)c2)cc2c(c1C)C(N1CC(C)(O)C1)CC2` (single isomer, unassigned) [Compound 27a, 1-(5-(3-chloro-4-cyclopropylphenyl)-6,7-dimethyl-2,3-dihydro-1H-inden-1-yl)-3-methylazetidin-3-ol], the figure is 1 to 10 nM.
As to `Cc1c(OCc2c(Cl)cccc2Cl)ccc2c1CCC2N1CC(C)(O)C1` (single isomer, unassigned) [Compound 19a, 1-[5-[(2,6-dichlorophenyl)methoxy]-4-methyl-indan-1-yl]-3-methyl-azetidin-3-ol], the EC50 lay within 1 to 10 nM.
For `CC1(O)CN(C2CCc3cc(OCc4c(Cl)cccc4Cl)ccc32)C1` (single isomer, unassigned) [Compound 3b, 1-(5-((2,6-dichlorobenzyl)oxy)-2,3-dihydro-1H-inden-1-yl)-3-methylazetidin-3-ol], the EC50 was 10 to 100 nM.
As for `CC1(O)CN(C2CCc3cc(-c4ccc(C5CC5)c(F)c4)ccc32)C1` (single isomer, unassigned) [Compound 4b, 1-(5-(4-cyclopropyl-3-fluorophenyl)-2,3-dihydro-1H-inden-1-yl)-3-methyl azetidin-3-ol], the EC50 was 100 to 1000 nM.
As for `CC1(O)CN(Cc2ccc(C#Cc3cccc(F)c3)cc2)C1` [Compound 29, 1-(4-((3-fluorophenyl)-ethynyl)benzyl)-3-methylazetidin-3-ol], the figure is 100 to 1000 nM; as for `CC1(O)CCN(C2CCc3cc(C4CN(c5c(Cl)cccc5Cl)C4)ccc32)C1` (centres unmarked) [Compound 9, 1-(5-(1-(2,6-dichlorophenyl)azetidin-3-yl)-2,3-dihydro-1H-inden-1-yl)-3-methylpyrrolidin-3-ol], 100 to 1000 nM.
Consider `CCC1(O)CN(Cc2c(C)cc(C3CN(c4c(Cl)cccc4Cl)C3)cc2C)C1` [Compound 38, 1-(4-(1-(2,6-dichlorophenyl)azetidin-3-yl)-2,6-dimethylbenzyl)-3-ethylazetidin-3-ol], for which the EC50 was in the range of 100 to 1000 nM.
For `Cc1cc(-c2ccc(C3CC3)c(Cl)c2)cc2c1C(N1CC(C)(O)C1)CC2` (single isomer, unassigned) [Compound 10a, 1-[5-(3-chloro-4-cyclopropyl-phenyl)-7-methyl-indan-1-yl]-3-methyl-azetidin-3-ol], the 50% effective concentration (EC50) was in the range of 1 to 10 nM.
On to `CC1(O)CN(C2CCc3cc(C#Cc4ccccc4F)ccc32)C1` (single isomer, unassigned) [Compound 1a, 1-[5-[2-(2-fluorophenyl)ethynyl]indan-1-yl]-3-methyl-azetidin-3-ol], for which the EC50 lay in the range of 10 to 100 nM.
Under `CC1(O)CCN(Cc2ccc(C3CN(c4c(Cl)cccc4Cl)C3)cc2)CC1` [Compound 30, 1-(4-(1-(2,6-dichlorophenyl)azetidin-3-yl)benzyl)-4-methylpiperidin-4-ol] stands 1000 to 10000 nM.
Turning to `CC(C)c1cc(C2CN(c3c(Cl)cccc3Cl)C2)cc(C(C)C)c1CN1CC(C)(O)C1` [Compound 53, 1-(4-(1-(2,6-dichlorophenyl)azetidin-3-yl)-2,6-diisopropylbenzyl)-3-methylazetidin-3-ol], the EC50 was 1000 to 10000 nM.
As for `Cc1cc(CCc2c(Cl)cccc2Cl)cc2c1C(N1CC(C)(O)C1)CC2` (single isomer, unassigned) [Compound 14a, 1-[5-[2-(2,6-dichlorophenyl)ethyl]-7-methyl-indan-1-yl]-3-methyl-azetidin-3-ol], the figure is 1 to 10 nM; as for `CC1(O)CN(C2CCc3cc(-c4ccc(C5CC5)c(Cl)c4)ccc32)C1` (single isomer, unassigned) [Compound 5a, 1-[5-(3-chloro-4-cyclopropyl-phenyl)indan-1-yl]-3-methyl-azetidin-3-ol], 10 to 100 nM.
In the case of `CC1(O)CN(Cc2ccc(C3CN(c4c(Cl)cccc4Cl)C3)c3ccccc23)C1` [Compound 55, 1-((4-(1-(2,6-dichlorophenyl)azetidin-3-yl)naphthalen-1-yl)methyl)-3-methylazetidin-3-ol], the EC50 is 10 to 100 nM.
Consider `Cc1c(OCc2c(Cl)cccc2Cl)ccc2c1CCC2N1CC(C)(O)C1` (single isomer, unassigned) [Compound 19b, 1-[5-[(2,6-dichlorophenyl)methoxy]-4-methyl-indan-1-yl]-3-methyl-azetidin-3-ol], for which the EC50 was 1 to 10 nM.
Consider `CCc1cc(C2CN(c3c(Cl)cccc3Cl)C2)cc(C)c1CN1CC(C)(O)C1` [Compound 51, 1-(4-(1-(2,6-dichlorophenyl)azetidin-3-yl)-2-ethyl-6-methylbenzyl)-3-methylazetidin-3-ol], for which the EC50 is 10 to 100 nM.
Turning to `CC1(O)CCN(C2CCc3cc(-c4ccc(C5CC5)c(Cl)c4)ccc32)C1` (centres unmarked) [Compound 7, 1-(5-(3-chloro-4-cyclopropylphenyl)-2,3-dihydro-1H-inden-1-yl)-3-methylpyrrolidin-3-ol], the 50% effective concentration (EC50) was 100 to 1000 nM.
As for `CC1(O)CN(C2CCc3cc(C#Cc4cccc(F)c4)ccc32)C1` (single isomer, unassigned) [Compound 2b, 1-[5-[2-(3-fluorophenyl)ethynyl]indan-1-yl]-3-methyl-azetidin-3-ol], the figure is 10 to 100 nM; as for `Cc1cc(C2CN(c3c(Cl)cccc3Cl)C2)cc(C)c1CN1CC(O)(C(F)F)C1` [Compound 40, 1-(4-(1-(2,6-dichlorophenyl)azetidin-3-yl)-2,6-dimethylbenzyl)-3-(difluoromethyl) azetidin-3-ol], 100 to 1000 nM.
For `CC1(O)CN(Cc2ccc(C3CN(c4c(Cl)cccc4Cl)C3)c(F)c2)C1` [Compound 60, 1-(4-(1-(2,6-dichlorophenyl)azetidin-3-yl)-3-fluorobenzyl)-3-methylazetidin-3-ol], the EC50 lay in the range of 100 to 1000 nM.
Take `Cc1cc(C2CN(c3ccccc3)C2)cc(C)c1CN1CC(C)(O)C1` [Compound 43, 1-(2,6-dimethyl-4-(1-phenylazetidin-3-yl)benzyl)-3-methylazetidin-3-ol]: the EC50 is 1000 to 10000 nM.
In the case of `CC1(O)CN(C2CCc3cc(-c4ccc(C5CC5)c(F)c4)ccc32)C1` (single isomer, unassigned) [Compound 4a, 1-(5-(4-cyclopropyl-3-fluorophenyl)-2,3-dihydro-1H-inden-1-yl)-3-methyl azetidin-3-ol], the EC50 was 10 to 100 nM.
